These results are taken from patent US20180084782A1, “METHOD OF CONTROL OF STINKBUGS” (Syngenta Participations AG, priority 2015, published 2018).

The experiment deals with Euschistus heros (neotropical brown stink bug). Nature of the experiment: Insecticidal activity against Euschistus heros: contact/feeding activity on sprayed soybean plants. The format is in vivo. Conditions: 120 h. Here is the method:
Insecticidal activity against Euschistus heros (neotropical brown stink bug): contact/feeding activity of compounds 1 and 3 according to the invention and 2 and 4 as comparison:
Two week old soybean plants were sprayed in a turn table spray chamber with the diluted spray solutions. After drying, two soybean seeds were added and plants were infested with ten N-2 nymphs of the neotropical brown stink bug Euschistus heros in plastic test boxes. Boxes were incubated in a climate chamber at 25° C. and 60% relative humidity. Evaluation is done 5 days after infestation on mortality and growth effect.

Where [1] appears, read: 0.2 ppm spray, N-2 nymphs on soybean plants, evaluation 5 days after infestation, read-out: Mortality (%).
[2] abbreviates: 0.8 ppm spray, N-2 nymphs on soybean plants, evaluation 5 days after infestation, read-out: Mortality (%).
Setting [3] is: 3 ppm spray, N-2 nymphs on soybean plants, evaluation 5 days after infestation, read-out: Mortality (%).

Where two headings read alike, the source gives them in different places.

Regarding `Cn1nc(C(F)(F)C(F)(F)F)c(C(F)(F)F)c1-n1cc(-c2ccc(Cl)c(C(=O)NC3CC3)c2)nn1` [Compound 2, reference compound], under “0.0125 ppm spray, N-2 nymphs on soybean plants, evaluation 5 days after infestation, read-out: Mortality (%)”, the mortality at 0.0125 ppm was found to be 0%. Further, the mortality at 0.05 ppm (0.05 ppm spray, N-2 nymphs on soybean plants, evaluation 5 days after infestation, read-out: Mortality (%)) was found to be 10%. For the same compound, the mortality at 0.2 ppm under setting [1] is 20%. Further, the mortality at 0.8 ppm under setting [2] came out at 35%. Also, the mortality at 3 ppm under setting [3] was found to be 100%.
`Cn1nc(C(F)(F)C(F)(F)F)c(C(F)(F)F)c1-n1cc(-c2ccc(Cl)c(C(=O)NC3CC3)c2)cn1` [Compound 1] came in with a mortality at 0.0125 ppm of 35%, a mortality at 0.05 ppm of 50%, a mortality at 0.2 ppm of 95% and a mortality at 0.8 ppm of 100%. Also, the mortality at 3 ppm turned out to be 100%.
For the compound `Cn1nc(C(F)(F)C(F)(F)F)c(C(F)(F)F)c1-n1cc(-c2ccc(Cl)c(C(=O)NC3(C#N)CC3)c2)nn1` [Compound 4, reference compound], the mortality at 0.2 ppm under setting [1] came out at 0%. Besides, the mortality at 0.8 ppm under setting [2] worked out at 20%. In addition, the mortality at 3 ppm under setting [3] came to 95%.
Take `Cn1nc(C(F)(F)C(F)(F)F)c(C(F)(F)F)c1-n1cc(-c2ccc(Cl)c(C(=O)NC3(C#N)CC3)c2)cn1` [Compound 3]: the mortality at 0.0125 ppm was determined as 15%, the mortality at 0.05 ppm was determined as 35%, the mortality at 0.2 ppm came out at 95% and the mortality at 0.8 ppm came to 95%. The compound also returned a mortality at 3 ppm of 100%.
